Data published in paper PMC4308083, “Cytokine-Induced Loss of Glucocorticoid Function: Effect of Kinase Inhibitors, Long-Acting β2-Adrenoceptor Agonist and Glucocorticoid Receptor Ligands” (PLoS ONE, 2015).

Experiments:
[1] = system: CDKN1C, DUSP1, RGS2 and TSC22D3 mRNA in BEAS-2B cells; test: RT-PCR of glucocorticoid-inducible gene expression in BEAS-2B cells; settings: JNK inhibitor VIII 3 or 10 μM, PS-1145 10 μM, 6 h (Fig. 7)
[2] = system: JUN (c-Jun) phosphorylation; test: Western blot of TNF-induced JUN phosphorylation in BEAS-2B cells; type: cell-based, human; settings: 30 min pre-treatment, TNF 10 ng/ml 15 min, western blot (S1 Fig.), read-out: EC50 for decrease of TNF-induced JUN phosphorylation
Excerpt: Cells were lysed in 1× Laemmli buffer supplemented with phosphatase inhibitors (Sigma-Aldrich) and 1× complete protease inhibitor cocktail (Roche; Indianapolis, IN), size fractionated on 12% acrylamide gels and subsequently electro-transferred onto Hybond enhanced chemiluminescent membranes (GE Healthcare; Waukesha, WI). Membranes were blocked in 5% milk in tris-buffered saline containing 1% tween 20 and probed with antibodies against phospho-jun proto-oncogene (pJUN; pc-Jun) (9164; Cell Signaling Technology; Danvers, MA), nuclear factor of kappa light polypeptide gene enhancer in B-cells inhibitor, alpha (NFKBIA; IκBα) (sc-371; Santa Cruz Biotechnology; Dallas, TX), phospho-NFKBIA (9246; Cell Signaling Technology), phospho-AKT1 (9271S; Cell Signaling Technology), AKT (9272S; Cell Signaling Technology) and GAPDH (4699–9555(ST); AbD Serotec; Raleigh, NC). After washing, membranes were incubated with horseradish peroxidase-conjugated anti-rabbit (111–035–003; Jackson ImmunoResearch Laboratories Inc; West Grove, PA) or anti-mouse immunoglobulin (115–035–003; Jackson ImmunoResearch Laboratories Inc). Detection was by enhanced chemiluminescence (Pierce ECL Western Blotting Substrate; Thermo Fisher Scientific Inc.; Rockford, IL) and visualization by autoradiography. […]

[3] = system: 2×GRE reporter; test: Modulation of dexamethasone/NR3C1 ligand-induced 2×GRE reporter activation (kinase inhibitors, TNF, formoterol) in BEAS-2B cells; type: cell-based, human; settings: dexamethasone
Procedure: BEAS-2B cells stably transfected with a glucocorticoid response element (2×GRE) driven luciferase reporter plasmid, pGL3.neo.TATA.neo [23], were cultured in medium containing 0.25 mg/ml G-418 (Promega, Madison, WI). Cells were grown to confluence in 24 or 48 well plates and incubated overnight in serum-free media prior to experiments. Cells were harvested in reporter lysis buffer and luciferase assays performed according to the manufacturer’s instructions (Firefly Luciferase Assay Kit; Biotium; Hayward, CA) using a 20/20n luminometer (Promega).
Data (n = 7), expressed as a percentage of Dex activation, are plotted as means ± S.E. BEAS-2B 2×GRE cells were pre-treated for 30 min with the indicated concentrations of B. PS or JNK or C. JNK in the presence or absence of 10 μM PS, before addition of 10 ng/ml TNF. After 1 h, 10 μM Dex was added and cells harvested 6 h later for luciferase assay. […] D+T indicates Dex plus TNF treatment.
Data (n = 3–4), expressed as fold activation, are plotted as means ± S.E. D+T indicates Dex plus TNF treatment.
Cells were harvested after 6 h for luciferase assays. Data (n = 7), expressed as fold activation, are plotted as means ± S.E. Lines of best fit were added in panel B. Statistical analyses were performed by ANOVA with a Dunnett’s test comparing each NR3C1 ligand alone versus in the presence of TNF and/or Form. *, P<0.05; **, P<0.01; ***, P<0.001.

- EC50 [2]: ~300 nM
- EC50 ([3]; read-out: EC50 for reversal of TNF-induced repression of 2×GRE reporter, TNF 10 ng/ml, 6 h (Fig. 3B)): 1600 nM
Compound: CCOc1nc(NC(=O)Cc2cc(OC)ccc2OC)cc(N)c1C#N [JNK inhibitor VIII]
- Effect on dexamethasone-induced mRNA expression of CDKN1C, DUSP1, RGS2, TSC22D3 in absence or presence of TNF [1]: no significant effect
- 2×GRE reporter induction restored in presence of TNF, % of that induced by dexamethasone ([3]; 10 μM inhibitor 30 min pre-treatment, TNF 10 ng/ml, 6 h (Fig. 3A)): 77%
- Effect on dexamethasone-induced 2×GRE reporter activation (concentration-response) ([3]; 30 min pre-treatment, 6 h (Fig. 3B, Fig. 4), JNK inhibitor VIII only at 30 μM, PKC inhibitors above 1 μM): modestly enhanced
- TNF-induced repression reversed to % of the response to dexamethasone ([3]; concentration-response, TNF 10 ng/ml, 6 h (Fig. 3B), repression ~60% without inhibitor): 87%
